Measured values: the supplement of paper PMC10627819

Experiments:
[1] = tested on: S. aureus Newman; assay: Bliss interaction score (quartile over a dose matrix) (fitness difference); higher = more antagonism (negative = synergy)
How it was run: (§1)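 Growth in each well was taken as OD595 at entry into stationary phase. Dividing by the plate's robust no-drug mean and capping at 1 gave fitness, and single-drug fitness was inferred from the combination data. The Bliss score, observed minus product-expected fitness, is summarised by quartiles over technical, biological and donor/recipient replicates.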

[2] = tested on: S. aureus DSM 20231; assay: as above
How it was run: as §1

[3] = tested on: B. subtilis 168; assay: as above
How it was run: as §1

[4] = tested on: S. pneumoniae D39V; assay: as above
How it was run: as §1

[5] = tested on: S. pneumoniae D39V; assay: fitness (endpoint OD595 vs no drug) (fraction); higher = more growth
How it was run: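 Cultures at OD595 0.01 were dispensed into 384-well plates in TSB, LB Lennox or CY and incubated at 37 °C. Every 30 min for 14 h, OD595 was read and corrected by the first reading. Fitness is the optical density at entry into stationary phase relative to the robust mean of no-drug control wells, capped at 1.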
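Throughout, for Bliss interaction score (quartile over a dose matrix): first quartile when negative (synergy) and third quartile when positive (antagonism).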

C[C@@H](O)[C@H]1C(=O)N2C(C(=O)O)=C(SCCNC=N)C[C@H]12 [Imipenem] + CN(C)C(=O)C(CCN1CCC(O)(c2ccc(Cl)cc2)CC1)(c1ccccc1)c1ccccc1 [Loperamide]
Settings | Bliss interaction score
[1] | 0.0304
[2] | 0.0662
[3] | -0.203
[4] | 0.0901

fitness, [5]
Settings | first compound 0.005 µg/mL | first compound 0.0065 µg/mL | first compound 0.01 µg/mL | first compound 0.013 µg/mL | first compound 0.02 µg/mL | first compound 0.026 µg/mL
partner 17.14 µg/mL | 0.926 | – | 0.937 | – | 0.952 | –
partner 20 µg/mL | – | ≥ 1 | – | ≥ 1 | – | 0.986
partner 34.28 µg/mL | 0.907 | – | 0.947 | – | 0.942 | –
partner 40 µg/mL | – | ≥ 1 | – | ≥ 1 | – | 0.988
partner 80 µg/mL | – | 0.582 | – | 0.582 | – | 0.625

[5], partner 68.57 µg/mL, one replicate
Settings | fitness
first compound 0.005 µg/mL | 0.935
first compound 0.01 µg/mL | 0.93
first compound 0.02 µg/mL | 0.94

C[C@@H](O)[C@H]1C(=O)N2C(C(=O)O)=C(SCCNC=N)C[C@H]12 [Imipenem] + CN(C)c1cc(NC(=O)CNC(C)(C)C)c(O)c2c1C[C@H]1C[C@H]3[C@H](N(C)C)C(O)=C(C(N)=O)C(=O)[C@@]3(O)C(O)=C1C2=O [Tigecycline]
Settings | Bliss interaction score
[1] | -0.0535
[2] | 0.0348
[3] | -0.0658
[4] | 0.0689

fitness, [5]
Settings | first compound 0.005 µg/mL | first compound 0.0065 µg/mL | first compound 0.01 µg/mL | first compound 0.013 µg/mL | first compound 0.02 µg/mL | first compound 0.026 µg/mL
partner 0.65 µg/mL | 0.925 | 0.992 | 0.898 | 0.999 | 0.932 | 0.863
partner 1.3 µg/mL | 0.922 | 0.979 | 0.874 | 0.893 | 0.938 | 0.946
partner 2.6 µg/mL | 0.859 | 0.994 | 0.87 | 0.943 | 0.877 | 0.956

C[C@@H](O)[C@H]1C(=O)N2C(C(=O)O)=C(SCCNC=N)C[C@H]12 [Imipenem] + CN(N=O)C(=O)N[C@@H](C=O)[C@@H](O)[C@H](O)[C@H](O)CO [Streptozotocin]
Settings | Bliss interaction score
[1] | -0.0113
[2] | -0.0317
[3] | -0.138
[4] | 0.0577

fitness, [5], one replicate
Settings | first compound 0.005 µg/mL | first compound 0.01 µg/mL | first compound 0.02 µg/mL
partner 1.2 µg/mL | 0.986 | 0.949 | ≥ 1
partner 2.4 µg/mL | 0.983 | 0.931 | 0.97
partner 4.8 µg/mL | 0.917 | 0.86 | 0.94

fitness, [5]
Settings | first compound 0.0065 µg/mL | first compound 0.013 µg/mL | first compound 0.026 µg/mL
partner 1.2 µg/mL | 0.966 | 0.908 | 0.908
partner 2.4 µg/mL | 0.942 | 0.884 | 0.824
partner 4.8 µg/mL | 0.968 | 0.945 | 0.966

C[C@@H](O)[C@H]1C(=O)N2C(C(=O)O)=C(SCCNC=N)C[C@H]12 [Imipenem] + CN[C@@H]1[C@H](O)[C@H](NC)[C@H]2O[C@@]3(O)C(=O)C[C@@H](C)O[C@H]3O[C@@H]2[C@H]1O [Spectinomycin]
Settings | Bliss interaction score
[1] | -0.0557
[2] | -0.043
[3] | -0.0558
[4] | 0.0606

fitness, [5], one replicate
Settings | first compound 0.005 µg/mL | first compound 0.01 µg/mL | first compound 0.02 µg/mL
partner 4 µg/mL | 0.988 | 0.983 | ≥ 1
partner 8 µg/mL | 0.914 | 0.886 | 0.948

fitness, [5]
Settings | first compound 0.0065 µg/mL | first compound 0.013 µg/mL | first compound 0.026 µg/mL
partner 4 µg/mL | 0.895 | 0.878 | –
partner 8 µg/mL | 0.878 | 0.864 | 0.813
partner 16 µg/mL | 0.788 | 0.828 | 0.888

C[C@@H](O)[C@H]1C(=O)N2C(C(=O)O)=C(SCCNC=N)C[C@H]12 [Imipenem] + CN[C@@H]1[C@H](O[C@H]2[C@H](O[C@H]3[C@H](O)[C@@H](O)[C@H](N=C(N)N)[C@@H](O)[C@@H]3N=C(N)N)O[C@@H](C)[C@]2(O)C=O)O[C@@H](CO)[C@H](O)[C@H]1O [Streptomycin]
Settings | Bliss interaction score
[1] | 0.076
[2] | -0.0295
[3] | 0.1
[4] | 0.0603

fitness, [5], one replicate
Settings | first compound 0.005 µg/mL | first compound 0.01 µg/mL | first compound 0.02 µg/mL
partner 2 µg/mL | ≥ 1 | 0.955 | 0.988
partner 16 µg/mL | 0.779 | 0.813 | 0.786

fitness, [5]
Settings | first compound 0.005 µg/mL | first compound 0.0065 µg/mL | first compound 0.01 µg/mL | first compound 0.013 µg/mL | first compound 0.02 µg/mL | first compound 0.026 µg/mL
partner 2 µg/mL | – | 0.959 | – | 0.868 | – | 0.847
partner 4 µg/mL | 0.965 | 0.923 | 0.986 | 0.903 | 0.97 | 0.886
partner 8 µg/mL | 0.837 | 0.916 | 0.863 | 0.907 | 0.875 | 0.85

C[C@@H](O)[C@H]1C(=O)N2C(C(=O)O)=C(SCCNC=N)C[C@H]12 [Imipenem] + CN[C@H](CC(C)C)C(=O)N[C@H]1C(=O)N[C@@H](CC(N)=O)C(=O)N[C@H]2C(=O)N[C@H]3C(=O)N[C@H](C(=O)N[C@H](C(=O)O)c4cc(O)cc(O)c4-c4cc3ccc4O)[C@H](O)c3ccc(c(Cl)c3)Oc3cc2cc(c3O[C@@H]2O[C@H](CO)[C@@H](O)[C@H](O)[C@H]2O[C@H]2C[C@](C)(N)[C@H](O)[C@H](C)O2)Oc2ccc(cc2Cl)[C@H]1O [Vancomycin]
Settings | Bliss interaction score
[1] | -0.0669
[2] | 0.0423
[3] | -0.0736
[4] | -0.184

fitness, [5]
Settings | first compound 0.005 µg/mL | first compound 0.0065 µg/mL | first compound 0.01 µg/mL | first compound 0.013 µg/mL | first compound 0.02 µg/mL | first compound 0.026 µg/mL
partner 0.03125 µg/mL | 0.991 | – | 0.973 | – | 0.958 | –
partner 0.0625 µg/mL | 0.943 | – | 0.928 | – | 0.922 | –
partner 0.125 µg/mL | 0.783 | 0.769 | 0.767 | 0.798 | 0.76 | 0.817
partner 0.25 µg/mL | – | 0.0266 | – | 0.0839 | – | 0.0574
partner 0.5 µg/mL | – | 0.0186 | – | 0.0324 | – | 0.0486

C[C@@H](O)[C@H]1C(=O)N2C(C(=O)O)=C(SCCNC=N)C[C@H]12 [Imipenem] + CO[C@H]1/C=C/O[C@@]2(C)Oc3c(C)c(O)c4c(O)c(c(/C=N/N5CCN(C)CC5)c(O)c4c3C2=O)NC(=O)/C(C)=C\C=C\[C@H](C)[C@H](O)[C@@H](C)[C@@H](O)[C@@H](C)[C@H](OC(C)=O)[C@@H]1C [Rifampicin]
Settings | Bliss interaction score
[1] | 0.0149
[2] | 0.0391
[3] | 0.0636
[4] | -0.106

fitness, [5], one replicate
Settings | first compound 0.005 µg/mL | first compound 0.01 µg/mL | first compound 0.02 µg/mL
partner 0.025 µg/mL | 0.856 | 0.81 | 0.816
partner 0.2 µg/mL | 0 | 0 | 0

fitness, [5]
Settings | first compound 0.0065 µg/mL | first compound 0.013 µg/mL | first compound 0.02 µg/mL | first compound 0.026 µg/mL
partner 0.05 µg/mL | 0.678 | 0.721 | 0.726 | 0.695
partner 0.1 µg/mL | 0.402 | – | – | 0.361
partner 0.2 µg/mL | 0.254 | – | – | –

C[C@@H](O)[C@H]1C(=O)N2C(C(=O)O)=C(SCCNC=N)C[C@H]12 [Imipenem] + COc1c(N2C[C@@H]3CCCN[C@@H]3C2)c(F)cc2c(=O)c(C(=O)O)cn(C3CC3)c12 [Moxifloxacin]
Settings | Bliss interaction score
[1] | 0.0177
[2] | -0.0816
[3] | 0.0307
[4] | 0.0521

fitness, [5]
Settings | first compound 0.005 µg/mL | first compound 0.0065 µg/mL | first compound 0.01 µg/mL | first compound 0.013 µg/mL | first compound 0.02 µg/mL | first compound 0.026 µg/mL
partner 0.0037 µg/mL | – | 0.821 | – | 0.805 | – | 0.751
partner 0.005 µg/mL | 0.968 | – | 0.949 | – | 0.963 | –
partner 0.0075 µg/mL | – | 0.853 | – | 0.863 | – | 0.649
partner 0.01 µg/mL | 0.99 | – | 0.981 | – | 0.976 | –
partner 0.015 µg/mL | – | 0.856 | – | 0.67 | – | 0.65
partner 0.02 µg/mL | 0.933 | – | 0.904 | – | 0.941 | –

C[C@@H](O)[C@H]1C(=O)N2C(C(=O)O)=C(SCCNC=N)C[C@H]12 [Imipenem] + COc1ccc(C[C@H](N)C(=O)N[C@H]2[C@@H](O)[C@H](n3cnc4c(N(C)C)ncnc43)O[C@@H]2CO)cc1 [Puromycin]
Settings | Bliss interaction score
[1] | -0.0481
[2] | 0.0683
[3] | 0.0681
[4] | 0.0871

fitness, [5], one replicate
Settings | first compound 0.005 µg/mL | first compound 0.01 µg/mL | first compound 0.02 µg/mL
partner 1 µg/mL | 0.896 | 0.955 | 0.973
partner 2 µg/mL | 0.931 | 0.954 | 0.941
partner 4 µg/mL | 0.729 | 0.791 | 0.759

fitness, [5]
Settings | first compound 0.0065 µg/mL | first compound 0.013 µg/mL | first compound 0.026 µg/mL
partner 1 µg/mL | 0.992 | 0.989 | 0.964
partner 2 µg/mL | 0.96 | 0.886 | 0.906
partner 4 µg/mL | 0.748 | 0.783 | 0.739
